Reference: paper PMC7385036, “An allosteric pocket for inhibition of bacterial Enzyme I identified by NMR-based fragment screening” (Journal of Structural Biology: X, 2020)
Like-named read-outs stand apart in the source and are kept apart here.

Tests used:
[1] = biological target: T1, EIC domain of EI (Escherichia coli, UniProt P08839); test: CSP-based NMR titration experiments (equilibrium dissociation constant); type: binding, E. coli
T1 construct: made in house
Description: The affinity of the newly discovered EI ligands was investigated by acquiring CSP-based, NMR titration experiments on ^15N-labeled EIN or EIC at increasing concentration of small molecule ([Fielding, 2007]). The data were fit using a standard equilibrium dissociation equation ([Granot, 1983]) to obtain the equilibrium dissociation constant (KD) per each analyzed complex (Fig. 2d). This analysis identified six small molecules that bind the EIC domain of EI with low mM affinity (Fig. 2e).
NMR titration experiments were measured at 37 °C in 20 mM Tris (pH 7.4), 100 mM NaCl, 4 mM MgCl2, 2 mM DTT, and 5% D2O. The protein concentration was 400 µM and the concentration of small molecule was varied between 0 and 8 mM. Spectra were processed using NMRPipe ([Delaglio et al., 1995]) and analyzed using the program SPARKY (http://www.cgl.ucsf.edu/home/sparky). Assignment of the ^1H-^15N cross-peaks for the EIC-small molecule complexes was performed by titration experiments, following the change in ^1H-^15N cross-peak positions as a function of added small molecule. Weighted combined ^1H/^15N chemical shift perturbations (ΔH/N) resulting from the addition of increasing concentrations of small molecule were calculated using the following equation ([Mulder et al., 1999]):(1) ΔH/N=ΔδHWH^2+ΔδNWN^2 where WH (=1) and WN (=0.154) are weighting factor for the ^1H and ^15N amide shifts, respectively. ΔδH and ΔδN are the ^1H and ^15N chemical shift differences in ppm, respectively, between free and bound states. The equilibrium dissociation constants (KD) for the EIC-inhibitor complexes were obtained by fitting the changes in ΔH/N with increasing concentration of small molecule using the equation ([Granot, 1983]):(2) ΔH/N=Δ0P+L+KD-P+L-KD^2-4PL/2P where Δ0 is the weighted combined ^1H/^15N chemical shift at saturation, and P and L are the protein and small molecule concentrations, respectively.

[2] = biological target: T2, full-length EI (Escherichia coli, UniProt P08839); settings: read-out: Km,0 (Km in the absence of inhibitor); PEP as substrate of EI; kept fixed to its literature value, no reference given; cited from earlier work
[3] = biological target: T2, full-length EI; test: Enzyme kinetic assay of phosphoryl transfer from PEP to HPr by 1H-15N SOFAST NMR; type: biochemical, E. coli; design: phosphoryl transfer from PEP to HPr catalyzed by full-length EI; made in house; settings: 0.0, 1.5 and 6.0 mM compound, 25 °C, pH 7.4
Description: In such graphs, the y and x intercepts are equivalent to the inverse of the maximum velocity (1/Vmax) and the negative inverse of the Michaelis constant (−1/Km), respectively.
Vmax,0 (the value of Vmax in the absence of inhibitor) was optimized to maximize the agreement between experimental and simulated data (Fig. 3c).
Enzyme kinetic assay we run by measuring the rate of phosphoryl transfer from PEP to HPr catalyzed by full-length EI by using ^1H-^15N SOFAST NMR spectra as described previously ([Nguyen et al., 2018]). Reaction were run at 25 °C in 20 mM Tris (pH 7.4), 100 mM NaCl, 4 mM MgCl2, 2 mM DTT, and 5% D2O. The assay was performed in triplicate. The enzyme kinetic data measured at different concentration of inhibitor were fit using a completive or mixed inhibition model:(3) Competitiveinhibition-v0=Vmax,0PEP/Km,01+I/KI,S+PEP (4) Mixedinhibition-v0=Vmax,0PEP/Km,01+I/KI,S+PEP1+I/KI,I where v0 is the initial velocity of the enzymatic reaction, [PEP] and [I] are the concentration of substrate and inhibitor, respectively, KI,s is the equilibrium dissociation constant for the enzyme-inhibitor complex, KI,I is the dissociation constant for the interaction between the inhibitor and the enzyme-PEP complex, and Km,0 and Vmax,0 are the Michaelis constant and maximum velocity in the absence of inhibitors, respectively. The seven measured datasets (in the absence of inhibitor, and in the presence of two concentrations of each inhibitor) were fit globally.

[4] = 15N-labeled EIC 400 µM, small molecule 0-8 mM, 37 °C, pH 7.4, read-out: KD

NCc1ccc(Br)s1 [compound 4]
Kd [1, 4]: 2.9 mM

CC(CN)Nc1ccc([N+](=O)[O-])cc1 (stereo not drawn) [compound 6]
Kd [1, 4]: 4.1 mM

CC(C)Oc1ccc(Cl)cc1CN [compound 5]
Kd [1, 4]: 4.3 mM

C=C(OP(=O)(O)O)C(=O)O [PEP, phosphoenolpyruvate]
Km [2]: 350 µM

NCc1ccc(-c2ccc(F)cc2)o1 [compound 1]
Kd [1, 4]: 2.5 mM | Type of inhibition of EI (Lineweaver-Burk analysis) [3]: competitive inhibitors

CNCc1[nH]c2ccccc2c1C [compound 2]
Kd [1, 4]: 2.6 mM | Type of inhibition of EI (Lineweaver-Burk analysis) [3]: competitive inhibitors

Cc1nn(Cc2ccc(F)cc2)c(C)c1N [compound 3]
Kd [1, 4]: 3.2 mM | Kd ([1]; EIC, residues in the allosteric binding pocket fitted separately, read-out: KD, CSP titration data fitted for the residues in the allosteric binding pocket): 3.2 ± 0.2 mM | Kd ([1]; EIC, residues in the β3α3 loop fitted separately, read-out: KD, CSP titration data fitted for the residues in the β3α3 loop): 3.5 ± 0.3 mM | Type of inhibition of EI (Lineweaver-Burk analysis) [3]: mixed inhibitor
